“Also recorded” adds a separate entry of the source.
Tests used:
[1] = tested on: β-Gal-specific IgG isotypes; assay: IgG isotype ELISA (IgG, IgG1, IgG2a) in sera of vaccinated mice; assay type: in vivo, Balb/c mice; conditions: for enhancement of β-Galactosidase-specific IgG secretion vs β-Gal alone / increase of β-Gal-specific IgG1 secretion vs β-Gal alone / increase of β-Gal-specific IgG2a secretion vs β-Gal alone / increase of β-Gal specific IgG1 secretion vs β-Gal alone / secretion of IgG2a isotype vs β-Gal alone: 10 μg glycolipid; for enhancement of β-Galactosidase-specific IgG2a isotype vs β-Gal alone: 20 or 30 μg glycolipid, dose-dependent; for increase of β-Gal specific IgG1 secretion vs β-Gal alone / secretion of IgG2a isotype vs β-Gal alone: s.c. (parenteral)
Experimental: Co-administration of β-Gal with 10 μg glycolipids 1, 5 and 6 induced β-Gal-specific systemic IgG responses in Balb/c mice. Balb/c mice were immunized by the i.n. or s.c. route with β-Gal alone or together with glycolipids 1, 5 and 6 three times at 2-wk intervals. 10 days after the final immunization, the immunized mice were sacrificed. The levels of β-Gal-specific titers of IgG isotypes were determined in Sera of mice immunized by the i.n. (A) and s.c. (B) route. […] Bars represent mean Ab titer or amount±SE in each group. Each group consists of five mice. Data are representative of three separate experiments.
Co-administration of β-Gal with 20 or 30 μg glycolipids 5 and 6, respectively, induced β-Gal-specific systemic IgG responses in Balb/c mice. Balb/c mice were immunized by the i.n. or s.c. route with β-Gal alone or together with glycolipids 5 and 6 three times at 2-wk intervals. 10 days after the final immunization, the immunized mice were sacrificed. The levels of β-Gal-specific titers of IgG isotypes were determined in Sera of mice immunized by the i.n. (A) and s.c. (B) route. […] The parenteral administration of with β-Gal co-administered with 20 μg glycolipids 5 and 6 enhanced the β-Galactosidase-specific IgG1 isotype titer (>250000) in comparison to animals which were immunized with β-Gal alone. Bars represent mean Ab titer or amount±SE in each group. Each group consists of five mice. Data are representative of two separate experiments.
Isotyp ELISA: 96-well Nunc-Immuno MaxiSorp assay plates (Nunc, Roskilde, Denmark) were coated with 100 μl of β-Gal (Boehringer, Mannheim, Germany) at 5 μg/ml in 0.05 M carbonate buffer (pH 8.2) per well. Serial two-fold dilutions of sera or lavages in PBS with 1% BSA and 0.05% Tween 20 were added (100 μl/well), and plates incubated for 2 h at 37° C. After washing, biotin-conjugated rat anti-mouse IgG1 or IgG2a (Pharmingen, Hamburg, Germany) were added to determine IgG subclasses. Plates were incubated for an additional 1 h at 37° C. After four washes, 100 μl of peroxidase-conjugated streptavidin (Pharmingen) was added to cells and plates incubated at 37° C. for 30 min. After four washes, reactions were developed with ABTS in 0.1 M citrate-phosphate buffer (pH 4.35) containing 0.01% H2O2. To determine the concentration of IgG subclasses in serum, standard curves were obtained by coating the wells with an isotype-specific goat anti-mouse IgG, and then by incubating with purified mouse IgG1 or IgG2a antibodies (Dianova, Hamburg, Germany).

[2] = tested on: β-Gal-specific mucosal S-IgA; assay: β-Gal-specific secretory IgA in bronchial alveolar and vaginal lavages after i.n. immunisation; assay type: in vivo, Balb/c mice; conditions: for expression of β-Gal-specific S-IgA titers (lavage not named, FIG. 6): 20 up to 30 μg glycolipid, probably vaginal lavage
Experimental: Co-administration of β-Gal with 10 μg glycolipids 1, 5 and 6 induced β-Gal-specific mucosal S-IgA responses in Balb/c mice. Balb/c mice were immunized by the i.n. or s.c. route with β-Gal alone or together with glycolipids 1, 5 and 6 three times at 2-wk intervals. 10 days after the final immunization, the immunized mice were sacrificed. β-Gal-specific S-IgA titers were determined in vaginal lavage (VL) and Bronchial alveolar lavage (BAL) of mice immunized with β-Gal co-administered with glycolipids 1, 5 and 6 by the intranasal route. […] Bars represent mean Ab titer or amount±SE in each group. Each group consists of five mice. Data are representative of three separate experiments.
Co-administration of β-Gal with 20 up to 30 μg glycolipids 5 and 6 induced β-Gal-specific mucosal S-IgA responses in Balb/c mice. Balb/c mice were immunized by the i.n. or s.c. route with β-Gal alone or together with glycolipids 5 and 6 three times at 2-wk intervals. 10 days after the final immunization, the immunized mice were sacrificed. β-Gal-specific S-IgA titers were determined in vaginal lavage (VL) and Bronchial alveolar lavage (BAL) of mice immunized with β-Gal co-administered with glycolipids 5 and 6 by the intranasal route.
Experimental protocol: at day 38, mice were sacrificed and the final sampling was performed. Vaginal and lung lavages were obtained by flushing the organs with 1 ml of PBS supplemented with 50 mM EDTA, 0.1% BSA, and 10 mM PMSF. Lavages were then centrifuged to remove debris (10 min at 3000×g), and supernatant fluids were stored at −20° C. To determine the concentration of total IgA present in the lung and vaginal lavages, serial dilutions of the corresponding samples were incubated in microtiter plates that were previously coated with goat anti-mouse IgA (Sigma Chemie), as capture antibodies (100 μl/well). Serial dilutions of purified mouse IgA (Sigma Chemie) were used to generate a standard curve.

[3] = i.n. co-administration with β-Gal (FIG. 9 and FIG. 10)
[4] = s.c. co-administration with β-Gal (FIG. 9 and FIG. 10)
[5] = 10 μg glycolipid + 30 μg β-Gal, day 38
[6] = 20 up to 30 μg glycolipid + 30 μg β-Gal, day 38

| SMILES | IgG1 / IgG2a isotype pattern (Th2 / Th1) [1, 3] | enhancement of β-Galactosidase-specific IgG secretion vs β-Gal alone ([1]; i.n.) | increase of β-Gal-specific IgG1 secretion vs β-Gal alone ([1]; i.n.) | increase of β-Gal-specific IgG2a secretion vs β-Gal alone ([1]; i.n.) | enhancement of β-Galactosidase-specific IgG2a isotype vs β-Gal alone ([1]; i.n.) [fold] | increase of β-Gal specific IgG1 secretion vs β-Gal alone [1] | secretion of IgG2a isotype vs β-Gal alone [1] | IgG1 / IgG2a isotype pattern (Th2 / Th1) [1, 4] | β-Galactosidase-specific sIgA titer in bronchial alveolar lavage (BAL) [2, 5] | β-Galactosidase-specific sIgA titer in bronchial alveolar lavage (BAL) [2, 6] | expression of β-Gal-specific S-IgA titers (lavage not named, FIG. 6) [2] | enhancement of β-Galactosidase-specific IgG secretion vs β-Gal alone ([1]; s.c.) [fold] | β-Galactosidase-specific sIgA in vaginal lavages [2, 5] |
| --- | --- | --- | --- | --- | --- | --- | --- | --- | --- | --- | --- | --- | --- |
| CCCCCCCCCCCCCCOCC(COCCCCCCCCCCCCCC)O[C@@H]1O[C@H](CO[C@H]2O[C@H](CO)[C@H](O)[C@H](O)[C@H]2O)[C@@H](O)[C@H](O)[C@H]1O [glycolipid 6, 1,3-di-O-tetradecyl-2-O-[6′-O-(α-D-galactopyranosyl)-β-D-glucopyranosyl]-sn-glycerol] | comparable expression of IgG1 and IgG2a isotypes | 8 fold | 24 fold | 1.8 fold | 7 | no effect | no enhanced secretion | dominant Th2 response | below the detection level | comparable sIgA titers in BAL; also recorded: significant increase | comparable with titer of the control groups | – | – |
| CCCCCCCC/C=C\CCCCCCCCOCC(COCCCCCCCC/C=C\CCCCCCCC)O[C@@H]1O[C@H](CO)[C@@H](O[C@H]2O[C@H](CO)[C@@H](O)[C@H](O)[C@H]2O)[C@H](O)[C@H]1O (relative stereo) [glycolipid 1, 1,3-Di-O[cis-9-octadecenyl]-2-O-[4′-O-(α-D-glycopyranosyl)-β-D-glycopyranosyl]-sn-glycerol] | dominant Th2 pattern | no effect | no effect | no effect | – | 2.5 fold | no enhanced secretion | dominant Th2 pattern | below the detection level | – | – | – | – |
| CCCCCCCCCCCCCCOCC(COCCCCCCCCCCCCCC)O[C@@H]1O[C@H](CO)[C@@H](O[C@H]2O[C@H](CO)[C@@H](O)[C@H](O)[C@H]2O)[C@H](O)[C@H]1O [glycolipid 5, 1,3-Di-O-tetradecyl-2-O-[4′-O-(α-D-glucopyranosyl)-β-D-glucopyranosyl]-sn-glycerol] | dominant Th2 pattern | 29 fold | 50 fold | 6 fold | 7 | 2.2 fold | no enhanced secretion | dominant Th2 pattern | > 1/130 and significant increase | > 1/170 and significant increase | comparable with titer of the control groups | 7 | enhanced |
